Laboratory results: PubChem BioAssay (NCI)
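Cells were grown in 96-well plates and exposed to each compound for 48 hours at five concentrations; endpoints were interpolated linearly between bracketing concentrations, or set to the highest concentration if not reached. Abbreviation: GI50, concentration required for 50% inhibition of growth. The concentration for full growth arrest is given as TGI.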

What was measured:
Experiment in all cases: NCI anticancer screen, dose series, 48 h
[1] = system: SNB-19 CNS
[2] = system: IGROV1 ovarian
[3] = system: U251 CNS
[4] = system: M14 melanoma
[5] = system: T-47D breast
[6] = system: ACHN renal
[7] = system: HCT-15 colon
[8] = system: UO-31 renal
[9] = system: MOLT-4 leukemia
[10] = system: OVCAR-8 ovarian
[11] = system: MDA-MB-435
[12] = system: MDA-MB-468 breast
[13] = system: A549 NSCLC
[14] = system: NCI-H460 lung
[15] = system: OVCAR-4 ovarian
[16] = system: SR leukemia
[17] = system: COLO 205 colon
[18] = system: HL-60(TB) leukemia
[19] = system: RXF 393 renal
[20] = system: MCF7 breast
[21] = system: OVCAR-5 ovarian
[22] = system: SK-OV-3 ovarian
[23] = system: UACC-62 melanoma
[24] = system: UACC-257 melanoma
[25] = system: NCI-H226 lung
[26] = system: OVCAR-3 ovarian
[27] = system: SK-MEL-28 melanoma
[28] = system: SF-295 CNS
[29] = system: SK-MEL-5 melanoma
[30] = system: SW-620 colon
[31] = system: HCC-2998 colon
[32] = system: SK-MEL-2 melanoma
[33] = system: BT-549 breast
[34] = system: HCT-116 colon
[35] = system: SF-539 CNS
[36] = system: HT29 colon
[37] = system: NCI-H522 lung
[38] = system: TK-10 renal
[39] = system: PC-3 prostate
[40] = system: EKVX NSCLC
[41] = system: NCI-H23 lung
[42] = system: K-562 leukemia
[43] = system: 786-0 renal
[44] = system: SN12C renal
[45] = system: MALME-3M melanoma
[46] = system: HOP-62 NSCLC
[47] = system: CAKI-1 renal
[48] = system: SF-268 CNS
[49] = system: HOP-92 NSCLC
[50] = system: KM12 colon
[51] = system: A498 renal
[52] = system: MDA-MB-231 breast
[53] = system: CCRF-CEM leukemia
[54] = system: DU-145 prostate
[55] = system: LOX IMVI melanoma
[56] = system: HS 578T breast

Q: Which GI50 [1] does the source give for `CN(C)c1nc(NCCNS(=O)(=O)c2ccc(C(=O)/C=C/c3ccc(Cl)cc3)cc2)nc(N2CCOCC2)n1` here?
A: 14.2 µM

Q: And the TGI [1]?
A: 27.2 µM

Q: What about the GI50 [2] of the same compound?
A: 3.08 µM

Q: What about the TGI [2] of the same compound?
A: 11 µM

Q: What about the GI50 [3] of the same compound?
A: 8.17 µM

Q: And the TGI [3]?
A: 20.7 µM

Q: And the GI50 [4]?
A: 14.1 µM

Q: What about the TGI [4] of the same compound?
A: 28.3 µM

Q: What about the GI50 [5] of the same compound?
A: 16.7 µM

Q: And the TGI [5]?
A: 42.2 µM

Q: What about the GI50 [6] of the same compound?
A: 13.5 µM

Q: What about the TGI [6] of the same compound?
A: 26.3 µM

Q: What about the GI50 [7] of the same compound?
A: 2.07 µM

Q: And the TGI [7]?
A: 4.54 µM

Q: And the GI50 [8]?
A: 11.4 µM

Q: And the TGI [8]?
A: 23.5 µM

Q: And the GI50 [9]?
A: 3.38 µM

Q: And the TGI [9]?
A: 80.3 µM

Q: What about the GI50 [10] of the same compound?
A: 14.8 µM

Q: And the TGI [10]?
A: 28.4 µM

Q: What about the GI50 [11] of the same compound?
A: 12.8 µM

Q: And the TGI [11]?
A: 26.6 µM

Q: And the GI50 [12]?
A: 11 µM

Q: And the TGI [12]?
A: 24.9 µM

Q: And the GI50 [13]?
A: 14.4 µM

Q: What about the TGI [13] of the same compound?
A: 28.5 µM

Q: And the GI50 [14]?
A: 16.8 µM

Q: What about the TGI [14] of the same compound?
A: 33.6 µM

Q: What about the GI50 [15] of the same compound?
A: 14.7 µM

Q: And the TGI [15]?
A: 29 µM

Q: And the GI50 [16]?
A: 2.52 µM

Q: And the TGI [16]?
A: > 100 µM

Q: And the GI50 [17]?
A: 16.7 µM

Q: What about the TGI [17] of the same compound?
A: 34.3 µM

Q: What about the GI50 [18] of the same compound?
A: 14.7 µM

Q: And the TGI [18]?
A: 95.1 µM

Q: What about the GI50 [19] of the same compound?
A: 12.8 µM

Q: What about the TGI [19] of the same compound?
A: 27 µM

Q: And the GI50 [20]?
A: 2.37 µM

Q: What about the TGI [20] of the same compound?
A: 6.39 µM

Q: And the GI50 [21]?
A: 15 µM

Q: And the TGI [21]?
A: 28.4 µM

Q: What about the GI50 [22] of the same compound?
A: 15.3 µM

Q: What about the TGI [22] of the same compound?
A: 30.2 µM

Q: What about the GI50 [23] of the same compound?
A: 11.4 µM

Q: And the TGI [23]?
A: 23.7 µM

Q: What about the GI50 [24] of the same compound?
A: 16.2 µM

Q: And the TGI [24]?
A: 30 µM

Q: What about the GI50 [25] of the same compound?
A: 15.7 µM

Q: And the TGI [25]?
A: 34 µM

Q: And the GI50 [26]?
A: 17.9 µM

Q: What about the TGI [26] of the same compound?
A: 35.5 µM

Q: What about the GI50 [27] of the same compound?
A: 15.5 µM

Q: What about the TGI [27] of the same compound?
A: 28.9 µM

Q: What about the GI50 [28] of the same compound?
A: 13.3 µM

Q: And the TGI [28]?
A: 26.4 µM

Q: What about the GI50 [29] of the same compound?
A: 16.3 µM

Q: What about the TGI [29] of the same compound?
A: 30.1 µM

Q: And the GI50 [30]?
A: 8.46 µM

Q: And the TGI [30]?
A: 21.7 µM

Q: What about the GI50 [31] of the same compound?
A: 16.7 µM

Q: And the TGI [31]?
A: 30.8 µM

Q: And the GI50 [32]?
A: 16.6 µM

Q: And the TGI [32]?
A: 30.4 µM

Q: And the GI50 [33]?
A: 15.3 µM

Q: What about the TGI [33] of the same compound?
A: 29.3 µM

Q: And the GI50 [34]?
A: 11.7 µM

Q: What about the TGI [34] of the same compound?
A: 24.3 µM

Q: What about the GI50 [35] of the same compound?
A: 14.7 µM

Q: What about the TGI [35] of the same compound?
A: 27.9 µM

Q: What about the GI50 [36] of the same compound?
A: 3.21 µM

Q: And the TGI [36]?
A: 10.4 µM

Q: And the GI50 [37]?
A: 14 µM

Q: What about the TGI [37] of the same compound?
A: 27.3 µM

Q: What about the GI50 [38] of the same compound?
A: 15.8 µM

Q: And the TGI [38]?
A: 29.4 µM

Q: And the GI50 [39]?
A: 13 µM

Q: And the TGI [39]?
A: 29.6 µM

Q: What about the GI50 [40] of the same compound?
A: 14.8 µM

Q: What about the TGI [40] of the same compound?
A: 28.7 µM

Q: And the GI50 [41]?
A: 15.7 µM

Q: What about the TGI [41] of the same compound?
A: 29.5 µM

Q: What about the GI50 [42] of the same compound?
A: 3.71 µM

Q: What about the TGI [42] of the same compound?
A: > 100 µM

Q: And the GI50 [43]?
A: 14.8 µM

Q: What about the TGI [43] of the same compound?
A: 28.8 µM

Q: What about the GI50 [44] of the same compound?
A: 14.4 µM

Q: What about the TGI [44] of the same compound?
A: 27.8 µM

Q: What about the GI50 [45] of the same compound?
A: 15.1 µM

Q: What about the TGI [45] of the same compound?
A: 28.6 µM

Q: And the GI50 [46]?
A: 17.5 µM

Q: What about the TGI [46] of the same compound?
A: 34 µM

Q: And the GI50 [47]?
A: 11.2 µM

Q: What about the TGI [47] of the same compound?
A: 24.7 µM

Q: And the GI50 [48]?
A: 17.7 µM

Q: And the TGI [48]?
A: 43.8 µM

Q: And the GI50 [49]?
A: 15.1 µM

Q: And the TGI [49]?
A: 32 µM

Q: What about the GI50 [50] of the same compound?
A: 16.9 µM

Q: And the TGI [50]?
A: 41.4 µM

Q: What about the GI50 [51] of the same compound?
A: 12.4 µM

Q: What about the TGI [51] of the same compound?
A: 25.1 µM

Q: What about the GI50 [52] of the same compound?
A: 13.3 µM

Q: And the TGI [52]?
A: 26.5 µM

Q: And the GI50 [53]?
A: 6.86 µM

Q: And the TGI [53]?
A: > 100 µM

Q: And the GI50 [54]?
A: 17.2 µM

Q: What about the TGI [54] of the same compound?
A: 34 µM

Q: And the GI50 [55]?
A: 1.71 µM

Q: And the TGI [55]?
A: 3.24 µM

Q: What about the GI50 [56] of the same compound?
A: 15.8 µM

Q: What about the TGI [56] of the same compound?
A: 60.5 µM
